Test results: US20200268831A1, “METHODS FOR ENHANCING IMMUNOTHERAPY IN THE TREATMENT OF CANCER” (The Texas A&M University System, priority 2017, published 2020)

Experiments:
[1] = system: MHC class II expressing B cells; assay: MHCII-mediated cell death of CpG-activated cells after peptide and anti-MHCII antibody; type: cell-based, C57/B6 mice; conditions: CpG activated cells treated with peptide followed by antibodies to MHCII; FIG. 3A
Description: In a first experiment, animals were injected with complete Freunds adjuvant (CFA) that contains mycobacterial DNA (a well-established TLR activator), or with CFA followed by the competitive antagonist peptide (CLIP inhibitor, SEQ ID NO. 2). Spleens were harvested, stained with CD19 for the detection of B cells, versus CLIP as an indicator of CD19+ cells expressing CLIP. The effect of CLIP inhibitors delivered in vivo on B cells (1A) versus CLIP+B cells (1B) is presented in the bar graphs.
To test the hypothesis that CLIP in the groove prevents MHCII-mediated cell death, we utilized animals that are deficient in CD74 expression (Ii Def mice), thus lacking both the precursor CD74 molecule as well as its proteolytic product, CLIP. […] any increase in cell death following CpG treatment, FIGS. 3A and 3B. […] The absence of CLIP (CLIP knock outs) leaves the cells susceptible to MHC Class II-mediated cell death (3B).

[2] = system: MHCII in B cells; assay: competitive displacement of peptides in the peptide binding groove of MHCII in B cells; type: cell-based; conditions: preliminary studies
Description: To confirm the expression of MHCII staining with fluorochrome-conjugated anti-MHCII antibodies, followed by flow cytometric analysis may be performed. The cells are stained for a panel of cell surface molecules, including CD19, CD80 (B7.1), CD86 (B7.2), CD74, MHCII associated invariant peptide (CLIP), and the family of immune check points, including PD1, B7-H2, and B7-H4. As a starting concentration, the cultured cells are treated with a competitive antagonist peptide (CAP) at a concentration of 5 μg/ml, as established from preliminary studies as the optimum concentration for competitive displacement of peptides in the peptide binding groove of MHCII in B cells. […] To characterize these parameters, including levels of MHCII and other cell surface characteristics, the cells are treated with the competitive antagonist peptide at the previously determined optimum concentration, presumably 5 μg/ml, followed by treatment with anti-MHCII antibody as a surrogate for TCR engagement. Susceptibility to MHCII-mediated cell death is assessed by treating the cells with peptide, followed by treatment with anti-MHCII antibody for periods ranging between 3 and 24 hours to determine the optimum kinetics for inducing cell death. […] The capability of CAP peptide treatment to promote MHCII-mediated cell death may be assessed.

## FRIMAVLAS [TPP]
[1]
  MHC Class-II-mediated cell death: MHC Class-II-mediated cell death can be restored
[2]
  optimum concentration for competitive displacement of peptides in the peptide binding groove of MHCII: 5 µg/mL
